Experimental data published in PMC7450938, “Prenatal to early postnatal neurotrophic treatment prevents Alzheimer-like behavior and pathology in mice” (Alzheimer's Research & Therapy, 2020).

Experiments:
[1] = test system: 3xTg-AD mice; test: Morris water maze; type: in vivo, mouse; details: ~4 months
Procedure: Pregnant 3xTg-AD and wild-type (WT) mice were treated with compound P021 in mouse chow, or as control with vehicle feed from gestational day 8 (E8) till their offspring/pups reached PND21, at which point the offspring were separated from their mother and put on normal mouse chow (Fig. 1). There were four study groups of mice, as follows: offspring of WT treated with vehicle diet (WT-Vh, n = 10), offspring of WT treated with […] diet (WT-[…], n = 17), offspring of 3xTg-AD treated with vehicle diet (3xTg-Vh, n = 12), and offspring of 3xTg-AD treated with […] diet (3xTg-[…], n = 18). Elevated plus maze, novel object recognition test, and Morris water maze were carried out consecutively from postnatal day 90 with all of mice. About 50% (4 animals/group) of the female offspring (n = 7-8 animals/group) were sacrificed at 4 months of age and the remaining 50% (3-4 animals/group) at 22 months of age. Left cerebral hemisphere homogenate was used for biochemical analysis and right cerebral hemisphere for immunohistochemical studies. We treated 2- to 3-month-old pregnant 3xTg-AD and WT mothers with compound P021 in mouse chow, or with vehicle feed as control at E8 until their offspring/pups reached PND21, at which point the offspring were separated and put on standard mouse chow (Fig. 1). Treatment was administered as 60 nmol peptide/g formulated diet (Research Diets; New Brunswick, NJ, USA). The vehicle-treated control animals received the same diet but without the peptide. On average, each mouse consumed ~ 2.7 g diet/day. The Morris water maze task was used to evaluate spatial learning and memory of the mice. A total of 57 mice were subjected to the Morris water maze task at about 4 months of age. The test was performed in a circular white pool (with a diameter of 180 cm and a height of 60 cm) filled with nontoxic white dye-tinted water and maintained at room temperature (20 ± 1 °C). The maze was designed with two virtual principal axes, with each line bisecting the maze perpendicular to the other one to divide the maze into four equal quadrants. […]

[2] = test system: P-tau (Ser396/404); test: PHF-1 immunofluorescence, hippocampal CA1; type: in vivo, mouse; details: hippocampal CA1 region, 22-month-old 3xTg-AD mice; P021 diet E8-PND21; vs 3xTg-Vh
Procedure: We treated 2- to 3-month-old pregnant 3xTg-AD and WT mothers with compound P021 in mouse chow, or with vehicle feed as control at E8 until their offspring/pups reached PND21, at which point the offspring were separated and put on standard mouse chow (Fig. 1). Treatment was administered as 60 nmol peptide/g formulated diet (Research Diets; New Brunswick, NJ, USA). The vehicle-treated control animals received the same diet but without the peptide. On average, each mouse consumed ~ 2.7 g diet/day.
The complete right hemisphere was immersion-fixed in 4% paraformaldehyde in 0.1 M PBS for 24–48 h, followed by cryoprotection in a 30% sucrose solution at 4 °C overnight. Later, the 40-μm-thick sagittal sections were cut on a freezing microtome. […]
Immunofluorescence staining was performed on free-floating sections, and every 12th brain section was chosen for densitometry and quantification. For immunohistochemical quantification, six brain sections of four animals per group were analyzed. All stainings for fluorescence-intensity quantification were carried out under identical conditions, including all tissue samples for a particular staining processed at the same time, and experimental and control sections photographed under identical settings. […]

## Ac-DGGL^AG-NH2 [P021, 4-mer CNTF small molecule peptide mimetic to which adamantylated glycine was added at the C-terminal]
[1]; 3xTg-AD offspring, P021 diet E8-PND21, 4 training days, three-way ANOVA treatment P = 0.1088, t test 3xTg-Vh vs 3xTg-P021 P < 0.05
  escape latency to reach the hidden platform, acquisition phase: did not prevent it as determined by the three-way ANOVA but showed a clear tendency as determined by the two-tailed t test
[1]; 3xTg-AD offspring, P021 diet E8-PND21, probe 24 h after last training, 3xTg-Vh vs 3xTg-P021 P = 0.0132
  latency to first entrance into the target zone, probe trial: decreased the latency significantly
[1]; among WT-Vh, WT-P021, 3xTg-Vh, 3xTg-P021 groups
  swim speed and cued trial: no significant difference
[2]
  PHF-1 immunofluorescence, percent area: attenuated
